Data on 30 compounds can be found in US20070129334A1, “Orally Active Purine-Based Inhibitors of Heat Shock Protein 90” (CONFORMA THERAPEUTICS CORPORATION, priority 2001, published 2007).

Read-outs that look alike come from different tables or passages of the source.

For data set [1], the system named is HER-2 receptor (Hsp90 client) in MCF-7 cells. As to the kind of experiment: HER-2 degradation assay (MCF-7 cells, 16 h, phycoerythrin-labeled antibody and flow cytometry). It counts as cell-based, human.
Data set [2] is described as follows: Solubility in simulated gastric fluid, simulated intestinal fluid and serum. It counts as physicochemical. As to conditions: for Serum (PH 7.4): solubility in serum; for Gastric (PH 2.0): solubility in simulated gastric fluid; for Intestinal (PH 6.5): solubility in simulated intestinal fluid.
The mark [3] stands for this setting: Homo sapiens, MCF7, benzothiozole moiety SAR, MCF-7, read-out: HER-2 IC50.
[4] abbreviates: Homo sapiens, MCF7, read-out: HER-2.
[5] abbreviates: Homo sapiens, MCF7, MCF-7 cells, 16 h, average of at least three observations, read-out: HER-2 IC50.
Setting [6] is: Homo sapiens, MCF7, read-out: HER-2 IC50(nM).

With `CCCCn1c(Sc2nc3cc(Cl)ccc3s2)nc2c(N)ncnc21` [Compound 180, 9-Butyl-8-(5-chloro-benzothiazol-2-ylsulfanyl)-9H-purine-6-ylamine], the IC50 in data set [1] (setting [3]) came to 20000 nM. With `Nc1ncnc2c1nc(Sc1nc3cccc(Cl)c3s1)n2CCCO` [Compound 245], the IC50 in data set [1] (setting [4]) was found to be 150 nM.

As to `Nc1ncnc2c1nc(Sc1nc3cccc(Cl)c3s1)n2CCCCO` [Compound 246, 4-[6-Amino-8-(7-chloro-benzothiazol-2-ylsulfanyl)-purin-9-yl]-butan-1-ol], in data set [1] (setting [4]), the IC50 was found to be 150 nM. For `N#CCCCCn1c(Sc2nc3cccc(Cl)c3s2)nc2c(N)ncnc21` [Compound 284, 5-[6-Amino-8-(7-chloro-benzothiazol-2-ylsulfanyl)-purin-9-yl]-pentanenitrile], the IC50 in data set [1] (setting [4]) worked out at 110 nM. Further, in data set [2], the “Serum (PH 7.4)” value is 31.3 µg/mL, the “Gastric (PH 2.0)” value is 58.7 µg/mL and the “Intestinal (PH 6.5)” value is 4.4 µg/mL. On to `CCCCCn1c(Sc2nc3cccc(Cl)c3s2)nc2c(N)ncnc21` [Compound 233, 9-Pentyl-8-(7-chloro-benzothiazol-2-ylsulfanyl)-9H-purine-6-ylamine], for which, in data set [1] (setting [4]), the IC50 was determined as 700 nM. `CCCCn1c(Sc2cc(OC)ccc2OC)nc2c(N)ncnc21` [Compound 43, 9-Butyl-8-(2,5-dimethoxy-phenylsulfanyl)-9H-purin-6-ylamine]: in data set [1] (setting [5]), the IC50 is 3500 nM.

As for `Nc1ncnc2c1nc(Sc1nc3cccc(Cl)c3s1)n2CCO` [Compound 244, 2-[6-Amino-8-(7-chloro-benzothiazol-2-ylsulfanyl)-purin-9-yl]-ethanol], the IC50 in data set [1] (setting [4]) came to 300 nM. Regarding `CCCCn1c(Sc2nc3cccc(C)c3s2)nc2c(N)ncnc21` [Compound 172, 9-Butyl-8-(7-methyl-benzothiazol-2-ylsulfanyl)-9H-purine-6-ylamine], in data set [1] (setting [6]), the IC50 worked out at 300 nM.

As to `CCCCn1c(Sc2nc3cncc(Br)c3s2)nc2c(N)ncnc21` [Compound 207], the IC50 in data set [1] (setting [4]) was found to be 400 nM. Turning to `CCCCn1c(Sc2nc3c(Cl)cccc3s2)nc2c(N)ncnc21` [Compound 181, 9-Butyl-8-(4-chloro-benzothiazol-2-ylsulfanyl)-9H-purine-6-ylamine], the IC50 in data set [1] (setting [3]) came out at 15000 nM. Regarding `C#CCCCn1c(Sc2cc(OC)ccc2I)nc2c(N)nc(F)nc21` [Compound 68, 2-Fluoro-8-(2-iodo-5-methoxy-phenylsulfanyl)-9-pent-4-ynyl-9H-purin-6-ylamine], in data set [1] (setting [5]), the IC50 amounted to 360 nM. With `CCCCn1c(Sc2nc3ccccc3s2)nc2c(N)ncnc21` [Compound 178, 8-(Benzothiazol-2-ylsulfanyl)-9-butyl-9H-purine-6-ylamine], the IC50 in data set [1] (setting [3]) came out at 5000 nM. For `CC(C)(C)NCCn1c(Sc2nc3cccc(Cl)c3s2)nc2c(N)ncnc21` [Compound 265, 9-(2-tert-Butylamino-ethyl)-8-(7-chloro-benzothiazole-2-ylsulfanyl)-9H-purin-6-yl amine], the IC50 in data set [1] (setting [4]) is 140 nM. `CCCCn1c(Sc2nc3cccc(Cl)c3s2)nc2c(N)ncnc21` [Compound 232, 9-Butyl-8-(7-chloro-benzothiazol-2-ylsulfanyl)-9H-purine-6-ylamine]: the IC50 in data set [1] (setting [4]) and in data set [1] (setting [6]) was 180 nM each time. Regarding `CC(C)(C)NCCCn1c(Sc2nc3cccc(Cl)c3s2)nc2c(N)ncnc21` [Compound 253, 9-(3-tert-Butylamino-propyl)-8-(7-chloro-benzothiazol-2-ylsulfanyl)-9H-purin-6-yl amine], the IC50 in data set [1] (setting [4]) was found to be 150 nM. Besides, in data set [2], the “Serum (PH 7.4)” value was 198.7 µg/mL and the “Intestinal (PH 6.5)” value was 137.7 µg/mL.

With `CC(=O)OCCCCn1c(Sc2nc3cccc(Cl)c3s2)nc2c(N)ncnc21` [Compound 243, Acetic acid 4-[6-amino-8-(7-chloro-benzothiazol-2-ylsulfanyl)-purin-9-yl]-butyl ester], the IC50 in data set [1] (setting [4]) amounted to 130 nM. Also, in data set [2], the “Gastric (PH 2.0)” value was 46 µg/mL and the “Intestinal (PH 6.5)” value is 3 µg/mL. As to `CCCCn1c(Sc2nc3ccc(Cl)c(Cl)c3s2)nc2c(N)ncnc21` [Compound 185, 9-Butyl-8-(6,7-dichloro-benzothiazol-2-ylsulfanyl)-9H-purine-6-ylamine], the IC50 in data set [1] (setting [3]) turned out to be 25000 nM. As to `CCCCn1c(Cc2cc(OC)ccc2Br)nc2c(N)ncnc21` [Compound 23, 8-(2-Bromo-5-methoxy-benzyl)-9-butyl-9H-purin-6-ylamine], the IC50 in data set [1] (setting [5]) came to 8000 nM. On to `CCCCn1c(Sc2nc3cccc(F)c3s2)nc2c(N)ncnc21` [Compound 175, 9-Butyl-8-(7-fluoro-benzothiazol-2-ylsulfanyl)-9H-purine-6-ylamine], for which the IC50 in data set [1] (setting [6]) was found to be 200 nM.

For `CC(=O)OCCn1c(Sc2nc3cccc(Cl)c3s2)nc2c(N)ncnc21` [Compound 241, Acetic acid 2-[6-amino-8-(7-chloro-benzothiazol-2-ylsulfanyl)-purin-9-yl]-ethyl ester], the IC50 in data set [1] (setting [4]) is 150 nM. For the compound `CCCCn1c(Sc2nc3cncc(Cl)c3s2)nc2c(N)ncnc21` [Compound 177, 9-Butyl-8-(7-chloro-thiazole[4,5-c]pyridin-2-ylsulfanyl)-9H-purin-6-ylamine], the IC50 in data set [1] (pyridothiazole moiety SAR, HER-2 degradation activity, read-out: HER-2) is 280 nM. For `CCCCn1c(Sc2nc3cccc(Br)c3s2)nc2c(N)ncnc21` [Compound 171, 8-(7-Bromo-benzothiazol-2-ylsulfanyl)-9-butyl-9H-purine-6-ylamine], the IC50 in data set [1] (setting [6]) worked out at 330 nM. On to `CC(C)NCCCn1c(Sc2nc3cccc(Cl)c3s2)nc2c(N)ncnc21` [Compound 266, 8-(7-Chloro-benzothiazol-2-ylsulfanyl)-9-(3-isopropylamino-propyl)-9H-purin-6-yl amine], for which the IC50 in data set [1] (setting [4]) was found to be 170 nM. `CCCCn1c(Cc2cc(OC)ccc2I)nc2c(N)ncnc21` [Compound 20, 9-Butyl-8-(2-iodo-5-methoxy-benzyl)-9H-purin-6-ylamine]: the IC50 in data set [1] (setting [5]) was 5000 nM. `CCn1c(Sc2nc3cccc(Cl)c3s2)nc2c(N)ncnc21` [Compound 229, 9-ethyl-8-(7-chloro-benzothiazol-2-ylsulfanyl)-9H-purine-6-ylamine]: in data set [1] (setting [4]), the IC50 is 200 nM. Turning to `CCCCn1c(Sc2nc3cccc(OCC)c3s2)nc2c(N)ncnc21` [Compound 174, 9-Butyl-8-(7-ethoxy-benzothiazol-2-ylsulfanyl)-9H-purine-6-ylamine], the IC50 in data set [1] (setting [3]) turned out to be 100000 nM.

For the compound `Nc1ncnc2c1nc(Sc1nc3cccc(Cl)c3s1)n2CCN1CCOCC1` [Compound 270, 8-(7-Chloro-benzothiazol-2-ylsulfanyl)-9-(2-morpholin-4-yl-ethyl)-9H-purin-6-ylamine], the IC50 in data set [1] (setting [4]) came out at 250 nM. Regarding `CCCCn1c(Sc2nc3ccc(Cl)cc3s2)nc2c(N)ncnc21` [Compound 179, 9-Butyl-8-(6-chloro-benzothiazol-2-ylsulfanyl)-9H-purine-6-ylamine], the IC50 in data set [1] (setting [3]) was 7000 nM. Take `CC(=O)OCCCn1c(Sc2nc3cncc(Cl)c3s2)nc2c(N)ncnc21` [Compound 205, Acetic acid 3-[6-amino-8-(7-chloro-thiazolo[4,5-c]pyridin-2-ylsulfanyl)-purin-9-yl]-propyl ester]: in data set [1] (setting [4]), the IC50 was 170 nM.

Take `CCCn1c(Sc2nc3cccc(Cl)c3s2)nc2c(N)ncnc21` [Compound 231, 9-Propyl-8-(7-chloro-benzothiazol-2-ylsulfanyl)-9H-purine-6-ylamine]: in data set [1] (setting [4]), the IC50 stood at 250 nM.
